Data from patent US9730874B2, “Nitrone compounds and their use in personal care” (Dow Global Technologies LLC, priority 2014, dated 2017).

assay: Oxygen Radical Absorbance Capacity (ORAC) antioxidant potential; type: biochemical; conditions: calculated from ORAC values (AUC minus blank) vs Trolox; test concentration 100 micromolar
Experimental: Antioxidant potential is evaluated using the Oxygen Radical Absorbance Capacity (ORAC) protocol. ORAC is a chemical in-vitro method based on the hydrogen atom transfer (HAT) mechanism (see N. Re et al., Free Radical Biology & Medicine, 26 (9/10), 1231 (1997)). ORAC measures antioxidant inhibition of peroxyl radical induced oxidations and thus reflects classical radical chain breaking antioxidant activity by H atom transfer. In this assay, the peroxyl radical reacts with a fluorescent probe to form a non-fluorescent product. This is quantitated using a fluorescence measurement. Antioxidant capacity is determined by decreased rate and amount of product formed over time. This assay depends upon the free radical damage to the fluorescent probe resulting in the change in its fluorescence intensity. The change of fluorescence intensity is an indicator of the degree of free radical damage. In the presence of an antioxidant, the inhibition of free radical damage is reflected in higher fluorescence intensity and can be measured as antioxidant capacity against the free radicals. The uniqueness of ORAC assay is that the reaction is driven to completion. This allows calculation of the area under the curve (AUC) and gives an absolute quantitation of antioxidancy as opposed to relative measurements in many other assays.
As noted, the longer it takes to observe a decrease in fluorescence, the higher the antioxidant (AO) potential. From the AUC for a given antioxidant, the AUC for blank is subtracted to give its ORAC value. The concentration of AO needed to give the same AUC values as Trolox is calculated and used to represent the Trolox equivalent AO Capacity (TEAC). Trolox is ((±)-6-Hydroxy-2,5,7,8-tetramethylchromane-2-carboxylic acid, CAS #53188-07-1), and is used as an internal control.
The ORAC test is conducted in the stilbene-pendant nitrone compounds of Table 1 above (inventive compounds) as well as to Vitamin C, Vitamin E, and the following comparative compounds:
The inventive stilbene-pendant nitrones in the ORAC test solutions were at a concentration of 100 micromolar, while the concentrations of Trolox, Vitamin C, Vitamin E, BHT, PBN+BHT, and VAL-IPHA were at 100 micromolar. The TEAC values calculated from the ORAC values are listed the Table 3.

Molecule	TEAC (Trolox equivalent AO Capacity)
CC(C)(C)/[N+]([O-])=C/c1ccccc1 [PBN, 2-Phenyl-N-tert-butylnitrone, reference compound]	not very high
COc1cc(/C=C/c2ccc(O)c(/C=[N+](/[O-])Cc3ccc(O)cc3O)c2)ccc1O [Sald-24DHBzHA, N-(2-Hydroxy-5-(4-hydroxy-3-methoxystyryl)benzylidene)-1-(2,4-dihydroxyphenyl)methanamine oxide]	7.31
COc1cc(/C=C/c2ccc(O)c(/C=[N+](/[O-])Cc3ccc(O)c(O)c3)c2)ccc1O [Sald-34-DHBzHA, N-(2-Hydroxy-5-(4-hydroxy-3-methoxystyryl)benzylidene)-1-(3,4-dihydroxyphenyl)methanamine oxide]	7.16
COc1cc(/C=C/c2ccc(O)c(/C=[N+](/[O-])Cc3ccccc3)c2)ccc1O [Sald-BzHA, N-(2-Hydroxy-5-(4-hydroxy-3-methoxystyryl)benzylidene)-1-phenylmethanamine oxide]	8.33
COc1cc(/C=C/c2ccc(O)c(/C=[N+](/[O-])Cc3ccc(O)cc3)c2)ccc1O [Sald-pHBzHA, N-(2-Hydroxy-5-(4-hydroxy-3-methoxystyryl)benzylidene)-1-hydroxyphenylmethanamine oxide]	9.02
O=C1O[C@H]([C@@H](O)CO)C(O)=C1O [Vitamin C, reference compound]	0.76
Vitamin E [reference compound]	0.13
